Laboratory results published in ChEMBL document CHEMBL4673302, “Efficient synthesis and antitumor evaluation of 4-aminomethyl-N-arylpyrazoles: Discovery of potent and selective agents for ovarian cancer” (Bioorg Med Chem, 2021).

How the values were obtained:
[1] = tested on: OVCAR-3; assay: Anticancer activity against human OVCAR-3 cells assessed as cell growth inhibition measured after 48 hrs by sulforhodamine B assay; type: functional
[2] = tested on: MCF7; assay: Anticancer activity against human MCF7 cells assessed as cell growth inhibition measured after 48 hrs by sulforhodamine B assay; type: functional
[3] = tested on: HT-29; assay: Anticancer activity against human HT-29 cells assessed as cell growth inhibition measured after 48 hrs by sulforhodamine B assay; type: functional
[4] = tested on: PC-3; assay: Anticancer activity against human PC-3 cells assessed as cell growth inhibition measured after 48 hrs by sulforhodamine B assay; type: functional
[5] = tested on: U-251; assay: Anticancer activity against human U-251 cells assessed as cell growth inhibition measured after 48 hrs by sulforhodamine B assay; type: functional
[6] = tested on: K562; assay: Anticancer activity against human K562 cells assessed as cell growth inhibition measured after 48 hrs by sulforhodamine B assay; type: functional
[7] = tested on: 786-0; assay: Anticancer activity against human 786-0 cells assessed as cell growth inhibition measured after 48 hrs by sulforhodamine B assay; type: functional
[8] = tested on: NCI-H460; assay: Anticancer activity against human NCI-H460 cells assessed as cell growth inhibition measured after 48 hrs by sulforhodamine B assay; type: functional
[9] = (§1) Cytotoxicity against human HaCaT cells assessed as cell growth inhibition measured after 48 hrs by sulforhodamine B assay; type: cell-based; conditions: HaCaT cells
[10] = tested on: HaCaT; assay: as §1; type: cell-based; conditions: hacat, 48 h

| Structure (SMILES) | GI50 ([1]; Homo sapiens, OVCAR-3, 48 h) | GI50 ([2]; Homo sapiens, MCF7, 48 h) | GI50 ([3]; Homo sapiens, HT-29, 48 h) | GI50 ([4]; Homo sapiens, PC-3, 48 h) | GI50 ([5]; Homo sapiens, U-251, 48 h) | GI50 ([6]; Homo sapiens, K562, 48 h) | GI50 ([7]; Homo sapiens, 786-0, 48 h) | GI50 ([8]; Homo sapiens, NCI-H460, 48 h) | GI50 at 48 h [9] | GI50 ([1]; 48 h) | GI50 ([3]; 48 h) | GI50 ([4]; 48 h) | GI50 ([5]; 48 h) | GI50 ([6]; 48 h) | GI50 ([7]; 48 h) | GI50 ([2]; 48 h) | GI50 ([8]; 48 h) | GI50 [10] |
| --- | --- | --- | --- | --- | --- | --- | --- | --- | --- | --- | --- | --- | --- | --- | --- | --- | --- | --- |
| CC(C)(C)NCc1c(C(=O)O)nn(-c2ccccc2)c1-c1ccc(Br)cc1 | > 585 µM | 293 µM | > 585 µM | > 585 µM | 126 µM | > 585 µM | > 585 µM | > 585 µM | 366 µM |  |  |  |  |  |  |  |  |  |
| CCOC(=O)c1nn(-c2ccccc2)c(-c2ccc([N+](=O)[O-])cc2)c1CNC(C)(C)C [listing 1 of 2 here] |  | 206 µM |  |  |  |  |  | 429 µM | 103 µM | 8.78 µM | 71.3 µM | > 592 µM | 220 µM | 12 µM | 200 µM |  |  |  |
| Cc1ccc(-c2c(CNC(C)(C)C)c(C(=O)O)nn2-c2ccc(Cl)cc2)cc1 | > 630 µM | > 630 µM | > 630 µM | > 630 µM | > 630 µM | > 630 µM | > 630 µM | > 630 µM | > 630 µM |  |  |  |  |  |  |  |  |  |
| CC(C)(C)NCc1c(C(=O)O)nn(-c2ccc(Cl)cc2)c1-c1ccc([N+](=O)[O-])cc1 | 162 µM | 550 µM | > 584 µM | > 584 µM | > 584 µM | 158 µM | 104 µM | 141 µM | > 584 µM |  |  |  |  |  |  |  |  |  |
| CC(C)(C)NCc1c(C(=O)O)nn(-c2ccccc2)c1-c1ccc([N+](=O)[O-])cc1 | > 634 µM | > 634 µM | > 634 µM | > 634 µM | > 634 µM | > 634 µM | > 634 µM | > 634 µM | > 634 µM |  |  |  |  |  |  |  |  |  |
| CC(C)(C)NCc1c(C(=O)O)nn(-c2ccccc2)c1-c1ccc(F)cc1 |  | > 681 µM | > 681 µM | > 681 µM | > 681 µM | > 681 µM | > 681 µM | > 681 µM | > 681 µM |  |  |  |  |  |  |  |  |  |
| CCOC(=O)c1nn(-c2ccc(Cl)cc2)c(-c2ccc(Br)cc2)c1CNC(C)(C)C | > 511 µM | > 511 µM | > 511 µM | > 511 µM | > 511 µM | > 511 µM | > 511 µM | > 511 µM | > 511 µM |  |  |  |  |  |  |  |  |  |
| COc1ccc(-c2c(CNC(C)(C)C)c(C(=O)O)nn2-c2ccc(Cl)cc2)cc1 | 121 µM | 220 µM | > 605 µM | > 605 µM | 498 µM | > 605 µM | > 605 µM | > 605 µM | 121 µM |  |  |  |  |  |  |  |  |  |
| CC(C)(C)NCc1c(C(=O)O)nn(-c2ccc(Cl)cc2)c1-c1ccc(Cl)cc1 | 84.9 µM | 246 µM | > 599 µM | > 599 µM | 518 µM | 290 µM | > 599 µM | > 599 µM | 87.5 µM |  |  |  |  |  |  |  |  |  |
| CCOC(=O)c1nn(-c2ccccc2)c(-c2ccc([N+](=O)[O-])cc2)c1CNC(C)(C)C [listing 2 of 2 here] |  |  |  |  |  |  |  |  |  | 288 µM | 35.1 µM | 128 µM | > 546 µM | 191 µM | > 546 µM | 168 µM | 327 µM | 130 µM |
| COc1cccc2c1C(=O)c1c(O)c3c(c(O)c1C2=O)C[C@@](O)(C(=O)CO)C[C@@H]3O[C@H]1C[C@H](N)[C@H](O)[C@H](C)O1 [DOXORUBICIN] | 0.09 µM | < 0.046 µM | 0.26 µM | 0.42 µM | < 0.046 µM | 0.06 µM |  | < 0.046 µM | < 0.046 µM |  |  |  |  |  |  |  |  |  |
| Cc1ccc(-c2c(CNC(C)(C)C)c(C(=O)O)nn2-c2ccccc2)cc1 | 283 µM | > 688 µM | > 688 µM | > 688 µM | > 688 µM | > 688 µM | > 688 µM | > 688 µM | > 688 µM |  |  |  |  |  |  |  |  |  |
| CC(C)(C)NCc1c(C(=O)O)nn(-c2ccc(Cl)cc2)c1-c1ccccc1 | 652 µM | 496 µM | > 652 µM | > 652 µM | > 652 µM | > 652 µM | > 652 µM | > 652 µM | 175 µM |  |  |  |  |  |  |  |  |  |
| CCOC(=O)c1nn(-c2ccc(Cl)cc2)c(-c2ccc(C)cc2)c1CNC(C)(C)C |  |  |  |  |  |  |  |  |  | > 542 µM | > 542 µM | > 542 µM | > 542 µM | > 542 µM | > 542 µM | > 542 µM | > 542 µM | > 542 µM |
| CC(C)(C)NCc1c(C(=O)O)nn(-c2ccccc2)c1-c1ccc(Cl)cc1 | > 652 µM | > 652 µM | 353 µM | 145 µM | > 652 µM | 364 µM | > 652 µM | 70.5 µM | > 652 µM |  |  |  |  |  |  |  |  |  |
